≈ marks a conversion by molar mass, not a printed value.
Columns and labels:
MCF7 [1] = assay: Growth inhibition of human MCF7 cells; assay type: functional
BXPC-3 = assay: Growth inhibition of human BxPC3 cells; assay type: functional
OVCAR-8 = assay: Growth inhibition of human OVCAR8 cells; assay type: functional
HepG2 [2] = assay: Growth inhibition of human HepG2 cells; assay type: functional
SN12C = assay: Growth inhibition of human SN12C cells; assay type: functional
SK-OV-3 = assay: Growth inhibition of human SKOV3 cells; assay type: functional
SNU1 = assay: Growth inhibition of human SNU1 cells; assay type: functional
PANC-1 = assay: Growth inhibition of human PANC1 cells; assay type: functional
T-24 = assay: Growth inhibition of human T24 cells; assay type: functional
[3] = Growth inhibition of human KATO III cells; assay type: functional
AGS = assay: Growth inhibition of human AGS cells; assay type: functional
WiDr = assay: Growth inhibition of human WiDr cells; assay type: functional
MCF7 [4] = assay: Cytotoxicity against human MCF7 cells assessed as reduction in cell viability after 48 hrs by MTT assay; assay type: functional, cell-based; conditions: MCF7, 48 h
HepG2 [5] = assay: Cytotoxicity against human HepG2 cells assessed as reduction in cell viability after 48 hrs by MTT assay; assay type: functional, cell-based; conditions: HepG2, 48 h
HepG2 [6] = assay: Antiproliferative activity against human HepG2 cells after 72 hrs by ELISA; assay type: functional, cell-based; conditions: HepG2, 72 h
MCF7 [7] = assay: Antiproliferative activity against human MCF7 cells after 72 hrs by ELISA; assay type: functional, cell-based; conditions: MCF7, 72 h
Caco-2 [8] = assay: Antiproliferative activity against human Caco2 cells after 72 hrs by ELISA; assay type: functional, cell-based; conditions: Caco-2, 72 h
K562 [9] = assay: Cytotoxicity against human K562 cells assessed as reduction in cell viability after 68 hrs by MTT assay; assay type: functional, cell-based; conditions: K562, 68 h
[10] = molecular target: RAC-alpha serine/threonine-protein kinase (Homo sapiens, UniProt P31749); assay: Inhibition of AKT phosphorylation in human K562 cells; assay type: cell-based
MCF7 [11] = assay: Cytotoxicity against human MCF7 cells assessed as reduction in cell viability after 68 hrs by MTT assay; assay type: functional, cell-based; conditions: MCF7, 68 h
A549 [12] = assay: Cytotoxicity against human A549 cells assessed as reduction in cell viability after 68 hrs by MTT assay; assay type: functional, cell-based; conditions: A549, 68 h
HeLa [13] = assay: Cytotoxicity against human HeLa cells assessed as reduction in cell viability after 68 hrs by MTT assay; assay type: functional, cell-based
MCF7 [14] = assay: Cytotoxicity against human MCF7 cells assessed as reduction in cell viability by MTT assay; assay type: functional, cell-based; conditions: Homo sapiens, MCF7
A549 [15] = assay: Cytotoxicity against human A549 cells assessed as reduction in cell viability by MTT assay; assay type: functional, cell-based
DU-145 = assay: Cytotoxicity against human DU145 cells assessed as reduction in cell viability after 24 hrs by MTT assay; assay type: functional, cell-based; conditions: DU-145, 24 h
BT-20 = assay: Cytotoxicity against human BT20 cells assessed as reduction in cell viability after 24 hrs by MTT assay; assay type: functional, cell-based; conditions: BT-20, 24 h
A549 [16] = assay: Cytotoxicity against human A549 cells assessed as reduction in cell viability after 24 hrs by MTT assay; assay type: functional, cell-based; conditions: A549, 24 h
SK-MEL-28 = assay: Cytotoxicity against human SK-MEL-28 cells assessed as reduction in cell viability after 24 hrs by MTT assay; assay type: functional, cell-based; conditions: SK-MEL-28, 24 h
HeLa [17] = assay: Cytotoxicity against human HeLa cells assessed as reduction in cell viability after 72 hrs by MTT assay; assay type: functional, cell-based
Caco-2 [18] = assay: Cytotoxicity against human Caco2 cells assessed as reduction in cell viability after 72 hrs by MTT assay; assay type: functional, cell-based; conditions: Caco-2, 72 h
K562 [19] = assay: Cytotoxicity against human K562 cells assessed as reduction in cell viability after 72 hrs by MTT assay; assay type: functional, cell-based; conditions: K562, 72 h
MDA-MB-231 = assay: Cytotoxicity against human MDA-MB-231 cells assessed as reduction in cell viability after 96 hrs by MTT assay; assay type: functional, cell-based; conditions: MDA-MB-231, 96 h
HT-29 = assay: Cytotoxicity against human HT-29 cells assessed as reduction in cell viability after 96 hrs by MTT assay; assay type: functional, cell-based; conditions: HT-29, 96 h
HCT-116 = assay: Cytotoxicity against human HCT116 cells assessed as reduction in cell viability after 96 hrs by MTT assay; assay type: functional, cell-based; conditions: HCT-116, 96 h

Chain of RAC-alpha serine/threonine-protein kinase (P31749 whole entry): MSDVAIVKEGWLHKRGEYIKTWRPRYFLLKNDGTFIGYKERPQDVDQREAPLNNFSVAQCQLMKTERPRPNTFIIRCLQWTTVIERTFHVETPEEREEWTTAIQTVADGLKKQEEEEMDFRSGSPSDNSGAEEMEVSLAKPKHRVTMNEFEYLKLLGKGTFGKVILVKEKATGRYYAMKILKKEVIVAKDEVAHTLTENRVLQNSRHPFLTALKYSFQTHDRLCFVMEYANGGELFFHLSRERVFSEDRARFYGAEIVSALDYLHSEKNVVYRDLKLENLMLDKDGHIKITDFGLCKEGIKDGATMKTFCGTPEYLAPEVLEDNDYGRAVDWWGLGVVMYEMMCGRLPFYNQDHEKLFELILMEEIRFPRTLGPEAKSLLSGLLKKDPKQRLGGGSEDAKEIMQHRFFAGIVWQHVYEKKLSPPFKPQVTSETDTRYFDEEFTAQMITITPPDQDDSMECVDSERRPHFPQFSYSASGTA

## Cc1cc2nc(-c3cc4ccccc4oc3=O)[nH]c2cc1C
MCF7 [1]
  GI50: > 10 µM
BXPC-3
  GI50: 0.07 to 3.57 µM
OVCAR-8
  GI50: 0.07 to 3.57 µM
HepG2 [2]
  GI50: 0.07 to 3.57 µM
SN12C
  GI50: 0.07 to 3.57 µM
SK-OV-3
  GI50: 0.07 to 3.57 µM
SNU1
  GI50: 0.07 to 3.57 µM
PANC-1
  GI50: 0.07 to 3.57 µM
T-24
  GI50: 0.07 to 3.57 µM
[3]
  GI50: 0.07 to 3.57 µM
AGS
  GI50: 0.07 to 3.57 µM
WiDr
  GI50: 0.07 to 3.57 µM

## Cc1ccc2[nH]c(-c3cc4ccccc4oc3=O)nc2c1
MCF7 [1]
  GI50: > 10 µM
BXPC-3
  GI50: 0.07 to 3.57 µM
OVCAR-8
  GI50: 0.07 to 3.57 µM
HepG2 [2]
  GI50: 0.07 to 3.57 µM
SN12C
  GI50: 0.07 to 3.57 µM
SK-OV-3
  GI50: 0.07 to 3.57 µM
SNU1
  GI50: 0.07 to 3.57 µM
PANC-1
  GI50: 0.07 to 3.57 µM
T-24
  GI50: 0.07 to 3.57 µM
[3]
  GI50: 0.07 to 3.57 µM
AGS
  GI50: 0.07 to 3.57 µM
WiDr
  GI50: 0.07 to 3.57 µM

## Cc1cc(-c2cc3cc(Cl)ccc3oc2=O)n(-c2nc(-c3ccc(Cl)cc3)cs2)n1
MCF7 [4]
  IC50: 4.03 to 31.5 µM
HepG2 [5]
  IC50: 3.06 to 3.74 µM

## COc1ccc(-c2csc(-n3nc(C)cc3-c3cc4cc(Cl)ccc4oc3=O)n2)cc1
MCF7 [4]
  IC50: 4.03 to 31.5 µM
HepG2 [5]
  IC50: 3.06 to 3.74 µM

## C/C(=N\Nc1ccccc1)c1ccc(NS(=O)(=O)c2ccc3oc(=O)ccc3c2)cc1
HepG2 [6]
  IC50: 5.03 to 175 µM
MCF7 [7]
  IC50: 5.03 to 175 µM
Caco-2 [8]
  IC50: 8.53 µM

## Cc1c(Cc2ccc(NC(=O)Nc3ccc(F)c(F)c3)nc2)c(=O)oc2cc(O)c(C(C)(C)C)cc12
K562 [9]
  IC50: 1.66 to 7.86 µM
[10]
  IC50: < 10 µM
MCF7 [11]
  IC50: 1.66 to 7.86 µM
A549 [12]
  IC50: 1.66 to 7.86 µM
HeLa [13]
  IC50: 1.66 to 7.86 µM

## O=C(CNCc1cccnc1)Nc1cc2ccccc2oc1=O
MCF7 [14]
  IC50: 69.1 to 378 µM
A549 [15]
  IC50: 69.1 to 378 µM

## C/C(=N\Nc1ccc([N+](=O)[O-])cc1[N+](=O)[O-])c1ccc(NS(=O)(=O)c2ccc3oc(=O)ccc3c2)cc1
HepG2 [6]
  IC50: 5.03 to 175 µM
MCF7 [7]
  IC50: 5.03 to 175 µM
Caco-2 [8]
  IC50: 5.03 to 175 µM

## O=C(Cn1nc(Cc2ccccc2Br)[nH]c1=O)NNC(=O)c1cc2cc(Cl)cc(Cl)c2oc1=O
DU-145
  IC50: 3.1 to 37.9 µg/mL (≈ 5.47 to 66.8 µM)
BT-20
  IC50: 3.1 to 37.9 µg/mL (≈ 5.47 to 66.8 µM)
A549 [16]
  IC50: 3.1 to 37.9 µg/mL (≈ 5.47 to 66.8 µM)
SK-MEL-28
  IC50: 3.1 to 37.9 µg/mL (≈ 5.47 to 66.8 µM)

## C/C(=N\NC1=NC(=O)CS1)c1ccc(NS(=O)(=O)c2ccc3oc(=O)ccc3c2)cc1
HepG2 [6]
  IC50: 5.03 µM
MCF7 [7]
  IC50: 5.03 to 175 µM
Caco-2 [8]
  IC50: 5.03 to 175 µM

## C/C(=N\NC1=NC(=O)C(C)S1)c1ccc(NS(=O)(=O)c2ccc3oc(=O)ccc3c2)cc1 (stereo not drawn)
HepG2 [6]
  IC50: 5.03 to 175 µM
MCF7 [7]
  IC50: 5.03 to 175 µM
Caco-2 [8]
  IC50: 5.03 to 175 µM

## COc1ccc(-c2cn(Cc3cc(=O)oc4cc(O)c(O)cc34)nn2)cc1
HeLa [17]
  IC50: 9.7 to 81.9 µM
Caco-2 [18]
  IC50: 9.7 to 81.9 µM
K562 [19]
  IC50: 9.7 to 81.9 µM

## COc1cccc(-c2cn(Cc3cc(=O)oc4cc(O)c(O)cc34)nn2)c1
HeLa [17]
  IC50: 9.7 to 81.9 µM
Caco-2 [18]
  IC50: 9.7 to 81.9 µM
K562 [19]
  IC50: 9.7 to 81.9 µM

## O=C(Cn1nc(Cc2ccc(Cl)cc2)[nH]c1=O)NNC(=O)c1cc2cc(Cl)cc(Cl)c2oc1=O
DU-145
  IC50: 3.1 to 37.9 µg/mL (≈ 5.93 to 72.5 µM)
BT-20
  IC50: 3.1 to 37.9 µg/mL (≈ 5.93 to 72.5 µM)
A549 [16]
  IC50: 3.1 to 37.9 µg/mL (≈ 5.93 to 72.5 µM)
SK-MEL-28
  IC50: 3.1 to 37.9 µg/mL (≈ 5.93 to 72.5 µM)

## C/C(=N\Nc1nc(C)c(-c2ccccc2)s1)c1ccc(NS(=O)(=O)c2ccc3oc(=O)ccc3c2)cc1
HepG2 [6]
  IC50: 3.48 µM
MCF7 [7]
  IC50: 5.03 to 175 µM
Caco-2 [8]
  IC50: 5.03 to 175 µM

## O=C(Cn1nc(Cc2ccc(Cl)c(Cl)c2)[nH]c1=O)NNC(=O)c1cc2cc(Cl)ccc2oc1=O
DU-145
  IC50: 3.1 to 37.9 µg/mL (≈ 5.93 to 72.5 µM)
BT-20
  IC50: 3.1 to 37.9 µg/mL (≈ 5.93 to 72.5 µM)
A549 [16]
  IC50: 3.1 to 37.9 µg/mL (≈ 5.93 to 72.5 µM)
SK-MEL-28
  IC50: 3.1 to 37.9 µg/mL (≈ 5.93 to 72.5 µM)

## Cc1ccc2c(Cn3cc(CO[C@H]4O[C@@H]5O[C@@]6(C)CC[C@H]7[C@H](C)CC[C@@H]([C@H]4C)[C@@]57OO6)nn3)cc(=O)oc2c1
MDA-MB-231
  IC50: 8.57 to 100 µM
HT-29
  IC50: 8.57 to 100 µM
HCT-116
  IC50: 8.57 to 100 µM

## COc1ccc2oc(=O)c(-c3nc4cc(OC)ccc4[nH]3)cc2c1
MCF7 [1]
  GI50: > 10 µM
BXPC-3
  GI50: 0.07 to 3.57 µM
OVCAR-8
  GI50: 0.07 to 3.57 µM
HepG2 [2]
  GI50: 0.07 to 3.57 µM
SN12C
  GI50: 0.07 to 3.57 µM
SK-OV-3
  GI50: 0.07 to 3.57 µM
SNU1
  GI50: 0.07 to 3.57 µM
PANC-1
  GI50: 0.07 to 3.57 µM
T-24
  GI50: 0.07 to 3.57 µM
[3]
  GI50: 0.07 to 3.57 µM
AGS
  GI50: 0.07 to 3.57 µM
WiDr
  GI50: 0.07 to 3.57 µM

Source: ChEMBL document CHEMBL4373717, “Coumarin-containing hybrids and their anticancer activities” (Eur J Med Chem, 2019)
